Data reported in ChEMBL document CHEMBL1208716, “Ceratinadins A-C, new bromotyrosine alkaloids from an Okinawan marine sponge Pseudoceratina sp” (2010).
In brackets after ≈: the same amount, converted by molar mass.

What was measured:
[1] = tested on: Cryptococcus neoformans; experiment: Antifungal activity against Cryptococcus neoformans; assay type: functional
[2] = tested on: Candida albicans; experiment: Antifungal activity against Candida albicans; assay type: functional

| SMILES | MIC [1] | MIC [2] |
| --- | --- | --- |
| N=c1[nH]cc(CCNC(=O)C2=NO[C@]3(C=C(Br)C(=O)[C@@H](Br)[C@@H]3O)C2)[nH]1 [CERATINADIN C] | > 32 µg/mL | > 32 µg/mL |
| COC1=C(Br)[C@H](O)[C@@]2(C=C1Br)CC(C(=O)NCCc1[nH]c(=N)[nH]c1-c1cc(O)c3[nH]cc(O)c(=O)c3c1O)=NO2 [CERATINADIN B] | 8 µg/mL (≈ 11.7 µM) | 4 µg/mL (≈ 5.86 µM) |
| COC1=C(Br)[C@H](O)[C@@]2(C=C1Br)CC(C(=O)NCCc1cn(-c3cc(O)c4[nH]cc(O)c(=O)c4c3O)cn1)=NO2 [CERATINADIN A] | 4 µg/mL (≈ 5.99 µM) | 2 µg/mL (≈ 3 µM) |
